Data on five compounds can be found in patent publication US7205011B2, “Anti-inflammatory activity of a specific turmeric extract” (Board of Regents, Acting for and on behalf of, University …, priority 2003, dated 2007).

One assay has as its system COX-2 mRNA. In words: COX-2 expression assay (Quantikine mRNA) in LPS-stimulated HL-60 cells. The note with it: HL-60 cells + LPS.
For the next assay, the system named is TNF-α. The note with it: Chan et al. 1995; Abe et al. 1999; cited from earlier work.
The test system of assay [1] is LPS-induced TNF-α production. Nature of the assay: Inhibition of LPS-induced TNF-α production in PMA-differentiated HL-60 cells (ELISA). The class given is cell-based. The following applies: Homo sapiens, read-out: IC50 TNF-α (50% inhibition of LPS-induced mediator production).
For assay [2], the system named is LPS-induced PGE2 production. In words: Inhibition of LPS-induced PGE2 production in PMA-differentiated HL-60 cells (ELISA). In kind it is cell-based. The following applies: Homo sapiens.
The subject of the next assay is COX-2 expression. The following applies: Lee et al. 2002; IC50 values not reported; cited from earlier work.
Setting [3] is: Table 1, curcuminoids from fraction 5, HL-60 cells, LPS 1 μg/ml, 24 hrs.
The mark [4] stands for this setting: Table 1, curcuminoids from fraction 5, HL-60 cells, LPS 1 μg/ml, 24 hrs, read-out: IC50 PGE2 (50% inhibition of LPS-induced mediator production).

≈ marks a conversion by molar mass, not a printed value. Read-outs that look alike come from different tables or passages of the source.

On to `COc1cc(/C=C/C(=O)CC(=O)/C=C/c2ccc(O)c(OC)c2)ccc1O` (single isomer, unassigned) [Curcumin, curcumin], for which the “inhibition (decrease) of COX-2 expression” value in the assay on COX-2 mRNA (0.5 μg/mL, 24 hrs, relative to LPS alone = 100%) is on record as “greater than 50%”. Besides, the “inhibition of COX-2 expression” value with COX-2 mRNA (1.0 μg/ml, 24 hrs, relative to LPS alone = 100%) is listed as “greater than 50%”. Also, the “effect on COX-2 expression / COX-2 mRNA levels” value in the assay on COX-2 mRNA (concentration not given, result in words) is listed as “inhibited COX-2 expression”. For the same compound, in the assay on TNF-α, the “concentration producing 50% decrease in production of TNF-α” value is 2 to 10 µg/mL. The IC50 amounted to 28.8 µg/mL (≈ 78.2 µM) in assay [1] (setting [3]) and 0.45 µg/mL (≈ 1.22 µM) in assay [2] (setting [4]).

Regarding `CC(C)=CCC[C@@H](C)c1ccc(C)c(O)c1` [xanthorrhizol], in the assay with COX-2 expression, the “concentrations showing inhibition of COX-2 expression” value was 5 to 10 µg/mL.

As to `COc1cc(/C=C/C(O)=C/C(=O)/C=C/c2ccc(O)cc2)ccc1O` (single isomer, unassigned) [Demethoxycurcumin, demethoxycurcumin], the IC50 in assay [1] (HL-60, 24 h) was found to be 24.7 µg/mL (≈ 73 µM); in assay [2] (HL-60, 24 h, read-out: IC50 PGE2 (50% inhibition of LPS-induced mediator production)) it was 2.6 µg/mL (≈ 7.68 µM).

Take `O=C(/C=C/c1ccc(O)cc1)CC(=O)/C=C/c1ccc(O)cc1` (single isomer, unassigned) [Bisdemethoxycurcumin, bisdemethoxycurcumin]: the IC50 is 24.6 µg/mL (≈ 79.8 µM) in assay [1] (setting [3]) and 1.2 µg/mL (≈ 3.89 µM) in assay [2] (setting [4]).

Regarding `COc1ccc2c(c1)c(CC(=O)O)c(C)n2C(=O)c1ccc(Cl)cc1` [indomethacin], the IC50 in assay [2] (HL-60 cells, LPS 1 μg/ml, 24 hrs, read-out: IC50 for LPS-induced PGE2 production) stood at 0.052 µg/mL (≈ 0.145 µM).
